For one assay, the system named is Jurkat cells. Briefly: Jurkat cell growth inhibition. The class given is cell-based, human. Here is the method: In Table 4 in cell GI50 values for the growth inhibition of Jurkat cells are reported. The GI50 value is the concentration of a test compound needed to produce 50% growth inhibition in the cell type listed. In Table 4 the isolated yield of each synthetic step for the synthesis of corresponding compounds are also reported.
(§1) Panc-1 cells (Pancreatic cancer cell line) and Jurkat cells (T-cell leukemia) were treated with 12.5 μM of P5-H6 or 12.5 μM of mP5-H6a for 72 hours. The cell number was counted as described in Example 5.
(§2) Cell viability was determined by Cell Counting Kit-8 (CCK-8, Dojindo, Kumamoto, Japan) as described previously (31). Cell viability was calculated relative to the DMSO control. Cell cycle profile was analyzed by flow cytometry as described previously (32).

For the next assay, the system named is MiaPaCa2. Briefly: MiaPaCa2 cell growth inhibition. It counts as cell-based, human. As to conditions: no unit printed there. Here is the method: (§3) In FIG. 9-24 in vitro IC50 values for the GGTase I activity are reported. In Tables 7-15 in cell GI50 values for the growth inhibition of a variety of cancer cell lines (e.g., Jurkat, K562, MDA-MB-231, BT474, MCF7, MiaPaCa2, Aspc-1, Panc-1, Capan-2, CFpac-1, and MCF10a) are reported.
as §2

The next assay deals with Panc-1. Put plainly: Panc-1 cell growth inhibition. To be noted: no unit printed there. It counts as cell-based, human. Here is the method:
as §3, §1, §2

The subject of the next assay is BT474. Briefly: BT474 cell growth inhibition. The class given is cell-based, human. As to conditions: no unit printed there. Here is the method:
as §3, §2

Another assay deals with MDA-MB-231. Put plainly: MDA-MB-231 cell growth inhibition. The class given is cell-based, human. As to conditions: no unit printed there. Here is the method: as §3, §2
In another assay the test system is Capan-2. Put plainly: Capan-2 cell growth inhibition. The class given is cell-based, human. As to conditions: no unit printed there. Here is the method:
as §3, §2

A further assay relates to CFpac-1. Briefly: CFpac-1 cell growth inhibition. The class given is cell-based, human. As to conditions: no unit printed there. Here is the method:
as §3, §2

For a further assay, the target named is T1, GGTase-I (Rattus norvegicus, UniProt P53610+Q04631).
T1 construct: purchased JENA BIOSCIENCE
Briefly: In vitro GGTase-I enzyme assay (IC50, kinetics). It counts as biochemical. As to conditions: for pIC50: Tables 3, 5, 7, read-out: In vitro (enzyme assay) IC50, GGTase I; for IC50: Tables 8-15, no unit printed there (Table 7 head: μM unless otherwise specified), read-out: In vitro (GGTase I IC50). Here is the method:
The GGTase-I assay was carried out using RhoA as a substrate protein, GGTase-I (JENA Bioscience) and [3H]geranylgeranyl pyrophosphate. Incubation was for 30 min at 37° C. GGTase-II (or RabGGTase) assay was carried out using YPTI as a substrate protein, GGTase-II (Calbiochem, San Diego, Calif.) plus REP1 (Calbiochem) and [3H]geranylgeranyl pyrophosphate. Incubation was for 30 min at 37° C. FIGS. 20D-20F show the three dimensional structure of GGTase I (D), FTsse (E) and GGTase II (F) which can be obtained from X-ray diffraction studies of protein crystals.
GGTase-I and FTase activities were determined by following the incorporation of radiolabeled isoprenoid [^3H]-geranylgeranyl or [^3H]-farnesyl into substrate proteins. FTase or GGTase-I (50 nM) were used to initiate reactions containing 0.4 μM of [^3H]-FPP or 0.5 μM of [^3H]-GGPP and 2 μM of MBP-tagged substrates (K-Ras4B for FTase; RhoA for GGTase-I) in 20 μl of buffer {50 mM Tris-HCl (pH 7.5), 10 mM MgCl2, […] and 5 mM DTT}. Inhibitors were added at the indicated concentrations. The final DMSO concentration was 2.5% for all samples.
Reactions were carried out for 10 min at 30° C. The reaction mixture was spotted onto a filter paper, treated with 10% trichloroacetic acid (TCA) followed by ethanol and acetone washing. The filter was counted using a scintillation counter. Kinetic assays in which the GGPP concentration was varied employed fixed concentrations of GGTase-I and RhoA, and reactions were carried out for 5 min. Similarly, fixed concentrations of GGTase-I and GGPP were used when the amount of RhoA was varied.

In another assay the test system is K562 cells. Put plainly: K562 cell growth inhibition. The class given is cell-based, human. To be noted: no unit printed there. Here is the method:
K562 cells are a cell line of human erythroleukemia cells. The K562 cells were treated with P3-E5, P5-H6 or GGTI-298 (a known GGTI compound illustrated in FIG. 27) for 72 hours and then cell number was counted using cell counting kit-8 (Dojindo, Gaithersburg, Md.). Cell viability relative to the DMSO control and the known GGTI compound is plotted in FIG. 23.
as §2

A further assay relates to Aspc-1. Briefly: Aspc-1 cell growth inhibition. As to conditions: no unit printed there. The class given is cell-based, human. Here is the method: as §3, §2
The next assay has as its system MCF10a. Briefly: MCF10a cell growth inhibition. It counts as cell-based. As to conditions: Tables 8-15, no unit printed there.
Description: as §3

The next assay relates to MCF7. Briefly: MCF7 cell growth inhibition. It counts as cell-based, human. To be noted: no unit printed there. Here is the method:
as §3, §2

Where [1] appears, read: Homo sapiens, Jurkat, Tables 4, 6, 7, read-out: Jurkat cell GI50.
Setting [2] is: Homo sapiens, Jurkat, Tables 8-15, no unit printed there, read-out: Jurkat GI50.
Setting [3] is: Homo sapiens, MIA PaCa-2, Tables 8-15.
The mark [4] stands for this setting: Homo sapiens, PANC-1, Tables 8-15.
Setting [5] is: Homo sapiens, BT-474, Tables 8-15.
The mark [6] stands for this setting: Homo sapiens, Capan-2, Tables 8-15.
Setting [7] is: Homo sapiens, K562, Tables 8-15.
Where [8] appears, read: Homo sapiens, ASPC1, Tables 8-15.
Setting [9] is: Homo sapiens, CFPAC-1, Tables 8-15.

As a reminder, the GI50 is the concentration giving 50% growth inhibition. The pIC50 is −log10 of the IC50, conventionally taken in molar units. For orientation: IC50 means the concentration needed to halve the response being measured.

pIC50: −log10 of the molar value. Where two headings read alike, the source gives them in different places.

On to `Cc1ccccc1S(=O)(=O)N1[C@@H](c2ccc(Cl)c(Cl)c2)C(C(=O)N[C@@H](Cc2ccccc2)C(N)=O)=C[C@H]1C(C)(C)C` [P61-B10], for which the GI50 turned out to be 5.62 µM with Jurkat cells (setting [1]); 5.62 µM with Jurkat cells (setting [2]); 8.06 µM in the assay with MiaPaCa2 (setting [3]); 11.7 µM with Panc-1 (setting [4]); 10.8 µM in the assay with BT474 (setting [5]); 12.6 µM in the assay on MDA-MB-231 (Tables 8-15). In addition, the GI50 in the assay on Capan-2 (setting [6]) worked out at 8.45 µM; in the assay with CFpac-1 (Tables 8-15) it was 6.09 µM; with K562 cells (setting [7]) it was 6.74 µM; with Aspc-1 (setting [8]) it was 12.9 µM. In addition, on GGTase-I, the pIC50 was 5.27. For the same compound, the concentration for half-maximal inhibition (IC50) on GGTase-I came out at 5.4 µM.

With `Cc1ccccc1S(=O)(=O)N1[C@@H](c2ccc(Cl)cc2)C(C(=O)N[C@@H](Cc2ccccc2)C(N)=O)=C[C@H]1C(C)CC(C)(C)C` (some centres unmarked) [P61-C03], the GI50 in the assay with Jurkat cells (setting [1]) is 9.76 µM; in the assay with Jurkat cells (setting [2]), 9.79 µM; in the assay with MiaPaCa2 (setting [3]), 7.17 µM; in the assay on Panc-1 (setting [4]), 8.85 µM; in the assay on BT474 (setting [5]), 10.8 µM; with Capan-2 (setting [6]), 10.5 µM. In addition, the GI50 came to 1.25 µM in the assay with CFpac-1 (setting [9]); 6.3 µM with K562 cells (setting [7]); 11.4 µM in the assay with Aspc-1 (setting [8]); 9.16 µM in the assay on MCF10a (Homo sapiens, MCF-10A); 3.1 µM in the assay with MCF7 (Homo sapiens, MCF7, Tables 8-15). The pIC50 at GGTase-I was below 5.00. Besides, the IC50 on GGTase-I is above 10 µM.

With `Cc1ccccc1S(=O)(=O)N1[C@@H](c2ccc(Cl)cc2)C(C(=O)N[C@@H](Cc2ccccc2)C(N)=O)=C[C@H]1C(C)CC(C)(C)C` (some centres unmarked) [P61-C04], the GI50 is 6.4 µM with Jurkat cells (Tables 4, 6, 7, read-out: Jurkat cell GI50); 6.4 µM in the assay on Jurkat cells (Tables 8-15, no unit printed there, listed as P61C4, read-out: Jurkat GI50); 6.7 µM in the assay on MiaPaCa2 (Tables 8-15, listed as P61C4); 8.6 µM with Panc-1 (Tables 8-15, listed as P61C4); 10.1 µM with BT474 (Tables 8-15, listed as P61C4); 7.5 µM in the assay with Capan-2 (Tables 8-15, listed as P61C4). In addition, the GI50 amounted to 5.95 µM in the assay on K562 cells (Tables 8-15, listed as P61C4); 8.61 µM in the assay with Aspc-1 (Tables 8-15, listed as P61C4); 11.3 µM in the assay on MCF10a (listed as P61C4); 4.71 µM in the assay with MCF7 (Tables 8-15, listed as P61C4). Besides, at GGTase-I, the pIC50 was below 4.30. Also, the IC50 on GGTase-I was above 50 µM.

For `Cc1ccccc1S(=O)(=O)N1[C@@H](c2ccc(Cl)cc2)C(C(=O)N[C@@H](CC(C)C)C(N)=O)=C[C@H]1C(C)(C)C` [drawing 156], the GI50 is 6.58 µM with Jurkat cells (setting [2]); 5.28 µM in the assay with BT474 (setting [5]); 6.68 µM in the assay on MDA-MB-231 (Homo sapiens, MDA-MB-231, Tables 8-15); 6.7 µM with K562 cells (setting [7]). In addition, at GGTase-I, the IC50 worked out at 8.1 µM.

In the case of `Cc1ccccc1S(=O)(=O)N1[C@@H](c2ccc(Cl)cc2)C(C(=O)N[C@@H](CC(C)C)C(N)=O)=C[C@H]1C(C)(C)C` [drawing 164], the GI50 in the assay on MiaPaCa2 (setting [3]) was 7.24 µM; with Panc-1 (setting [4]), 6.45 µM; in the assay on Capan-2 (setting [6]), 6.69 µM; in the assay on CFpac-1 (setting [9]), below 1.25 µM; with Aspc-1 (setting [8]) it was 11.4 µM.

With `Cc1ccccc1S(=O)(=O)N1C(c2cccc(Cl)c2)C(C(=O)N[C@@H](CC(C)C)C(N)=O)=CC[C@H]1c1ccc(Cl)cc1` (some centres unmarked) [drawing 202], the GI50 with MiaPaCa2 (setting [3]) was 12 µM; in the assay with Capan-2 (setting [6]), 14 µM; in the assay with CFpac-1 (setting [9]), 13.7 µM.
